Common to all, as to test: cells
Holding throughout (parameters): species or system NCI-60 human tumour cell lines; NCI-60 five-dose growth inhibition screen, sulforhodamine B protein stain
For orientation: The SRB assay estimates cell density from bound dye.

For one assay, the system named is ACHN. Conditions: Homo sapiens, ACHN, 48 h. The procedure: (§1) All the newly synthesised 28 compounds were selected for single-dose testing. NCI60 single-dose testing is performed in all 60 cell lines according to the reported assay (National Cancer Institute, https://dtp.cancer.gov/) (National Cancer Institute https://dtp.cancer.gov/discovery_development/nci-60/), compounds were dissolved in DMSO: glycerol […] and are stored in a −70 °C freezer. The prepared compounds were added at single concentration of 1 0^−5 M and the culture was incubated for 48 h. End point determinations were made with a protein binding dye, sulforhodamine B (SRB). The human tumour cell lines were derived from nine different cancer types: leukaemia, melanoma, lung, colon, central nervous system (CNS), ovarian, renal, prostate, and breast cancers. Dose–response curves for these compounds were created by plotting the percentage growth (PGs or % growth) against log10 of the corresponding concentration for every cell line. Three response parameters, GI50 (Median Growth Inhibitory Concentration), TGI (Total Growth Inhibitory Concentration), and LC50 (Median Lethal Concentration) were calculated[54] (National Cancer Institute, https://dtp.cancer.gov/discovery_development/nci-60/) (National Cancer Institute, https://dtp.cancer.gov/)[55] for compounds 5a and 6a. […] Furthermore, the average sensitivity of all cell lines towards the compound is termed as the full panel mean graph midpoints (MG-MID). The ratio obtained by dividing the full panel mean graph midpoints (MG-MID) concentration by the individual subpanel MG-MID concentrations (obtained as the average sensitivity of all cell lines of a particular subpanel towards the test compound) is considered a criterion for the compound selectivity towards the corresponding cell line. Ratios greater than 6 indicate high selectivity while ratios between 3 and 6 refer to moderate selectivity whereas compounds not meeting either of these criteria were rated non-selective[56].

The test system of the next assay is EKVX. Conditions: Homo sapiens, EKVX, 48 h. The procedure:
as §1

The next assay deals with HCT-15. Conditions: Homo sapiens, HCT-15, 48 h. The procedure:
as §1

A further assay has as its system HL-60(TB). Conditions: Homo sapiens, HL-60, 48 h. The procedure: as §1
A further assay relates to IGROV1. Conditions: Homo sapiens, IGROV-1, 48 h. The procedure:
as §1

A further assay deals with K-562. Conditions: Homo sapiens, K562, 48 h. The procedure: as §1
Another assay relates to MDA-MB-231/ATCC. Conditions: Homo sapiens, MDA-MB-231, 48 h. The procedure: as §1
The next assay has as its system MDA-MB-468. Conditions: Homo sapiens, MDA-MB-468, 48 h. The procedure:
as §1

In another assay the test system is NCI-H322M. Conditions: Homo sapiens, NCI-H322M, 48 h. The procedure:
as §1

Another assay deals with NCI-H460. Conditions: Homo sapiens, NCI-H460, 48 h. The procedure:
as §1

The subject of the next assay is RPMI-8226. Conditions: Homo sapiens, RPMI-8226, 48 h. The procedure:
as §1

A further assay deals with RXF 393. Conditions: Homo sapiens, RXF 393, 48 h. The procedure:
as §1

The subject of the next assay is SF-539. Conditions: Homo sapiens, SF-539, 48 h. The procedure: as §1
The test system of a further assay is SK-MEL-28. Conditions: Homo sapiens, SK-MEL-28, 48 h. The procedure:
as §1

For another assay, the system named is SK-MEL-5. Conditions: Homo sapiens, SK-MEL-5, 48 h. The procedure:
as §1

The subject of a further assay is SK-OV-3. Conditions: Homo sapiens, SK-OV-3, 48 h. The procedure: as §1
Another assay relates to UACC-62. Conditions: Homo sapiens, UACC-62, 48 h. The procedure: as §1

GI50 data for two compounds are collected here from paper PMC9721423, “Novel benzo chromene derivatives: design, synthesis, molecular docking, cell cycle arrest, and apoptosis induction in human acute myeloid leukemia HL-60 cells” (Journal of Enzyme Inhibition and Medicinal Chemistry, 2022).

SMILES strings stand for the structures. Like-named read-outs stand apart in the source and are kept apart here.

`N=C(NO)C1=C(N)Oc2c(ccc3ccccc23)C1c1ccccc1` (stereo not shown) [5a, 2-Amino-4-phenyl-N-hydroxy-4H-benzo[h]chromene-3-carboxamidine]: the 50% growth inhibitory concentration (GI50) (commonly the concentration giving 50% growth inhibition) worked out at 370 nM with ACHN (read-out: GI50 5a); 820 nM in the assay on EKVX (read-out: GI50 5a); 130 nM in the assay with HCT-15 (read-out: GI50 5a); 240 nM in the assay with HL-60(TB) (read-out: GI50 5a); 330 nM in the assay on IGROV1 (read-out: GI50 5a); 60 nM in the assay with K-562 (read-out: GI50 5a). The GI50 stood at 630 nM with MDA-MB-231/ATCC (read-out: GI50 5a); 1990 nM in the assay on MDA-MB-468 (read-out: GI50 5a); 660 nM in the assay on NCI-H322M (read-out: GI50 5a); 310 nM in the assay with NCI-H460 (read-out: GI50 5a); 380 nM in the assay on RPMI-8226 (read-out: GI50 5a); 200 nM with RXF 393 (read-out: GI50 5a). Besides, the 50% growth inhibitory concentration (GI50) turned out to be 210 nM in the assay with SF-539 (read-out: GI50 5a); 11800 nM with SK-MEL-28 (read-out: GI50 5a); 320 nM in the assay on SK-MEL-5; 620 nM in the assay with SK-OV-3 (read-out: GI50 5a); 50 nM in the assay on UACC-62 (read-out: GI50 5a).
`CC(=O)NC1=C(C#N)C(c2ccccc2)c2ccc3ccccc3c2O1` (stereo not shown) [6a, N-(3-Cyano-4-phenyl-4H-benzo[h]chromen-2-yl)acetamide]: the 50% growth inhibitory concentration (GI50) stood at 550 nM in the assay on ACHN (read-out: GI50 6a); 49900 nM in the assay on EKVX (read-out: GI50 6a); 510 nM in the assay on HCT-15 (read-out: GI50 6a); 290 nM with HL-60(TB) (read-out: GI50 6a); 530 nM with IGROV1 (read-out: GI50 6a); 320 nM in the assay with K-562 (read-out: GI50 6a). The GI50 amounted to 1250 nM in the assay with MDA-MB-231/ATCC (read-out: GI50 6a); 240 nM in the assay on MDA-MB-468 (read-out: GI50 6a); 820 nM with NCI-H322M (read-out: GI50 6a); 370 nM in the assay on NCI-H460 (read-out: GI50 6a); 410 nM with RPMI-8226 (read-out: GI50 6a); 270 nM in the assay on RXF 393 (read-out: GI50 6a). The concentration for 50% growth inhibition (GI50) in the assay with SF-539 (read-out: GI50 6a) is 350 nM; in the assay on SK-MEL-28 (read-out: GI50 6a), 860 nM; in the assay with SK-MEL-5 (read-out: GI50 6a), 360 nM; with SK-OV-3 (read-out: GI50 6a), 490 nM; with UACC-62 (read-out: GI50 6a), 710 nM.
